From the OPERA property sets (Mansouri et al. 2018) come the findings set out here.

Each structure is given as a SMILES string.

By boiling point is commonly meant the temperature at which the vapour pressure of the liquid equals the pressure above it. By melting point is commonly meant the temperature, or range, at which the solid turns liquid.

Conditions in one series: not given
With `Cc1cccnc1`, the boiling point is 144 °C, the log10 Henry constant (atm·m³/mol) was -5.11, the log10 vapour pressure (mmHg) came to 0.782 and the melting point was -18.1 °C. Moreover, the ready biodegradability entry was “not readily biodegradable”. For the compound `CCCCCCCCCCCCCCCC(=O)OCCCC`, the melting point was determined as 16.9 °C. Compound `c1ccc2c(c1)cc1c3ccccc3c3cccc4ccc2c1c43` had a melting point of 234 °C. In turn, `Cc1cccc(C)c1C(=O)O` displayed a boiling point of 274 °C and a melting point of 116 °C. Regarding `CCC(=O)OC(C)C`, the boiling point came out at 110 °C and the log10 vapour pressure (mmHg) is 1.35.

For `NC(=O)N1CCCCC1`, the melting point came out at 105 °C. `c1ccc(-c2ncoc2-c2ccccc2)cc1` had a melting point of 44 °C.

Compound `CCc1cccc([N+](=O)[O-])c1` displayed a boiling point of 242 °C and a melting point of -37.9 °C. The compound `CNC(C)CCC=C(C)C` (stereo not given) yielded a boiling point of 177 °C.

As for `ClC(COCC(Cl)C(Cl)(Cl)Cl)C(Cl)(Cl)Cl` (stereo not given), the melting point was -50 °C and the ready biodegradability entry is “not readily biodegradable”. `CC(C)CCO` gave a boiling point of 131 °C, a log10 Henry constant (atm·m³/mol) of -4.85, a log10 Koa of 4.52 and a log10 vapour pressure (mmHg) of 0.375. The ready biodegradability entry is given as “readily biodegradable”. In turn, `Cc1ccc([N+](=O)[O-])c(F)c1` displayed a melting point of 53.2 °C. `COc1cc2c3c(c4ccc(OC)c(OC)c4c2cc1OC)CN1CCC[C@H]1C3` gave a melting point of 220 °C.

With `Cc1c2ccccc2cc2c1ccc1ccccc12`, the melting point was 141 °C. `C=C(C)c1cc(=O)c(O)ccc1CC=C(C)C` returned a melting point of 71.5 °C.

In turn, `c1ccc2sncc2c1` showed a boiling point of 220 °C and a melting point of 38 °C. On to `COP1(=S)OCc2ccccc2O1` (stereo not given), for which the ready biodegradability entry was “not readily biodegradable”.

With `CCCOC(=O)C(C)C`, the boiling point was 135 °C and the log10 vapour pressure (mmHg) turned out to be 0.924. `CC(=O)Oc1cc(C(F)(F)F)ccc1C(=O)O`: the melting point stood at 121 °C. For `C=C(C=O)CC`, the boiling point was determined as 92.5 °C. `COc1ccc(C2C(=O)c3ccccc3C2=O)cc1` displayed a melting point of 156 °C.

The compound `O=C(CCC(=O)Oc1ccccc1)Oc1ccccc1` came in with a boiling point of 330 °C and a melting point of 121 °C.

The compound `COC(=O)CCCCCCCCCCCC(=O)OC` showed a boiling point of 332 °C and a melting point of 36 °C. `ClC(Cl)C(Cl)(Cl)Cl`: the boiling point is 160 °C, the log10 vapour pressure (mmHg) was determined as 0.544 and the melting point was -29 °C.

For `CC(O)COC(C)COC(C)CO` (stereo not given), the ready biodegradability result is “not readily biodegradable”. `Clc1ccc2oc3c(Cl)c(Cl)c(Cl)c(Cl)c3c2c1` had a log10 vapour pressure (mmHg) of -8.44 and a melting point of 178 °C. Turning to `CC1Cc2ccccc2C1`, the boiling point amounted to 195 °C.

On to `CC(C)CCCCCCCCCCCCCCC(=O)O`, for which the ready biodegradability entry is “readily biodegradable”. Compound `CN(C(=O)N(C)c1ccccc1)c1ccccc1` showed a boiling point of 350 °C and a melting point of 122 °C.

On to `Cc1ncc([N+](=O)[O-])n1C`, for which the melting point amounted to 138 °C. `CC(C)(C)Br` showed a boiling point of 73.3 °C, a log10 vapour pressure (mmHg) of 2.13 and a melting point of -16.2 °C. The compound `O=S(=O)(O)c1ccc(O)c2ncccc12` returned a melting point of 322 °C.

The compound `CCCCCCC(O)CCCCC` (stereo not given) had a boiling point of 225 °C and a melting point of 30 °C. For the compound `C=CCCCC(C)C`, the boiling point turned out to be 113 °C and the log10 vapour pressure (mmHg) was determined as 1.4.

In turn, `O=Cc1cccc(C(=O)O)c1` came in with a melting point of 174 °C. In turn, `CC=C(C)Cl` returned a boiling point of 64.5 °C and a melting point of -19 °C.

In turn, `CCCN=C=S` gave a boiling point of 153 °C.

`Cc1cncc(C)c1`: the boiling point was found to be 172 °C, the log10 Henry constant (atm·m³/mol) was -5.16, the log10 vapour pressure (mmHg) was determined as 0.239 and the melting point is -6.6 °C. The compound `C#CC(C)C` returned a boiling point of 26.3 °C and a melting point of -89.7 °C. The matching figures for `ClC(Cl)(Cl)CC(Cl)(Cl)Cl`: 206 °C and -27 °C.

`c1cn[nH]n1` returned a boiling point of 204 °C and a melting point of 23 °C. `O=C(Nc1cc(Cl)cc(Cl)c1O)c1c(O)c(Cl)cc(Cl)c1Cl` displayed a melting point of 210 °C.

On to `Clc1cc(Cl)c2cc(Cl)cc(Cl)c2c1`, for which the log10 Koa is 7.9 and the melting point is 180 °C.

The compound `CC1(C)C(O)=CC(=O)C=C1O` displayed a melting point of 214 °C. Same read-out and setting: next, `COC(=O)c1ccc2c(c1)OCO2`: 53 °C. For `CC(C)CC(C)(C)C`, the boiling point amounted to 99.2 °C, the log10 biodegradation half-life (days) is 1.6, the log10 vapour pressure (mmHg) came out at 1.69 and the melting point was -107 °C. The ready biodegradability result is reported as “not readily biodegradable”. In turn, `CCCCCCCN` showed a boiling point of 156 °C, a log10 vapour pressure (mmHg) of 0.438 and a melting point of -18 °C.

Still in this series, the particulars now being: fish.
`c1ccc2scnc2c1` displayed a log10 BCF of 0.88 and a log10 biotransformation half-life (days) of -0.86. The matching figures for `Cc1ccc(N)cc1C`: 0.95 and -0.99. For `CCOC(=O)CC(SP(=O)(OC)OC)C(=O)OCC` (stereo not given), in that order: 0.05 and -1.04.

`ClC(COCC(Cl)C(Cl)(Cl)Cl)C(Cl)(Cl)Cl` (stereo not given) registered a log10 BCF of 3.28.

Take `Cc1c2ccccc2cc2c1ccc1ccccc12`: the log10 biotransformation half-life (days) was -0.05.

In turn, `COP1(=S)OCc2ccccc2O1` (stereo not given) returned a log10 BCF of 1.31 and a log10 biotransformation half-life (days) of -1.15.
